Reference: US5916906A, “Compositions comprising nicotinylalanine and an inhibitor of glycine conjugation or vitamin B6” (priority 1997, dated 1999)
Several values for one entry are separate records, joined by “and”; a condition that tells them apart may be missing. Equal values may be shown once.

What was measured:
Format in all cases: in vivo, C57BL/6 mice
[1] = Hematocrit of LP-BM5 infected mice (hematopoietic toxicity); conditions: for Mean Hematocrit: virus-positive, NAL 400 mg/kg, ASA 20 mg/kg, AZT printed 1 mg/kg
Method: Disease progression was monitored by measuring serum IgM levels by ELISA on all animals at monthly intervals during the course of disease. Three mice per group were randomly selected and sacrificed at monthly intervals (end of month one through four) of the study. Disease scores for each animal were recorded weekly based upon palpation of lymph nodes and spleen. Complete gross necropsies were performed on these euthanized animals and the ratio of recorded spleen to body weights was an additional indicator of diseases progression. […] Infection was quantified by ecotropic virus XC plaque assays of spleens removed from the interim sacrificed animals. The study was to be terminated when mice were either dead or disease scores were +4 in more than 50% of the vehicle-treated MAIDS controls (Group 1), which occurred at 19 weeks post-inoculation of the virus pool. However, as the remaining mice in Group 1 were slow to progress towards more severe disease (FIG. 5) or death (FIG. 6), the study was extended until a termination date of 28 weeks post-inoculation.
Mice were maintained through the fifth month post virus inoculation until

[2] = system: LP-BM5 MuLV Retrovirus; assay: MAIDS model, interim sacrifices: body weight, disease score, spleen weight; conditions: for Body Wt. / Spleen Wt.: individual mouse; for Disease Score: scores 0 through +4, individual mouse
Method: This study was designed to determine whether nicotinylalanine (NAL) alone or in combination with acetylsalicylic acid (ASA) will prevent or alter the course of murine retroviral-induced immunodeficiency disease, MAIDS, in C57BL/6 female mice. The LP-BM5 MuLV virus used for these studies was prepared from chronically infected SC-1 cells (ATCC Cat. No. CRL-1404), as described by Yetter R. A. et al., J. Exp. Med., 168, 623-635, 1988. […] The MAIDS model is well characterized and reproducible in the laboratory, as described by Mosier D. E. et al., J. Exp. Med. 161, 766-784, 1985.
Measures of disease progression followed the methods developed by Eiseman et al., 1991 (Ibid). Disease scores 0 through +4 are based upon body weight gain and palpable alterations in the size of lymph nodes and spleen. Severity of disease is scored as follows: 0.5, increased body weight and variably detected increase in size of any one lymph node or spleen; +1, clearly detectable increase in the size of a lymph node and spleen; +2, readily detectable (greater than 0.3 cm in diameter) increased size in more than one lymph node and, in particular, enlargement of subcervical, brachial or axillary nodes; +3, increased size of all palpable nodes and palpable splenomegaly (≥0.3 grams); +4, advanced disease with extensive splenomegaly (>1.0 grams) and lymphadenopathy.
Specific pathogen free, female C57BL/6 mice (5 weeks of age) were purchased from Charles River Breeding Laboratories. All mice were allowed one week to acclimate to housing facilities prior to randomization for study. Animals were marked for identification and placed in microisolator cages with identifying cards (5 mice/cage), where autoclaved food and water were provided ad libitum.
NAL and ASA were formulated under sterile conditions according to preformulation methods outlined in Remington's Pharmaceutical Sciences Handbook, 18th Edition, 1990, ibid). NAL and ASA were dissolved in sterile phosphate-buffered normal saline solution (i.e., vehicle; Biofluids Inc., Lot 413054), adjusted to between pH 7.2 to 7.4 with […], sterilized by filtration through 0.2 μm bottle-type filters, and dispersed into sterile glass vials, sealed and capped (Wheaton Inc.).
Except for Group 6 (which began treatment 2 weeks after virus inoculation),test drug injections began 1 day after virus infection and continued every day except weekends (i.e., 5 times per week).
Disease progression was monitored by measuring serum IgM levels by ELISA on all animals at monthly intervals during the course of disease. Three mice per group were randomly selected and sacrificed at monthly intervals (end of month one through four) of the study. Disease scores for each animal were recorded weekly based upon palpation of lymph nodes and spleen. Complete gross necropsies were performed on these euthanized animals and the ratio of recorded spleen to body weights was an additional indicator of diseases progression. […] Infection was quantified by ecotropic virus XC plaque assays of spleens removed from the interim sacrificed animals.

[3] = system: LP-BM5 Retrovirus; assay: Ecotropic virus XC plaque assay on spleen cells of treated LP-BM5 infected mice; conditions: for Virus titer, plaques per million spleen cells: four months after inoculation, mean ± standard deviation, NAL 400 mg/kg
Source text: FIG. 4A and 4B: Mean Number of Virus Particles as Determined from Plaques per Million Spleen Cells from Serially Sacrificed Mice at Monthly Intervals After Inoculation with LP-BM5 Retrovirus. […] Each ml of the virus pool contained 3.66 log PFU ecotropic virus as determined by XC Plaque Assay. Treatment in all groups began one day after virus inoculation, except for the NAL 400 Delay Group which began treatment two weeks after virus inoculation. Groups and treatments are as follows:
FIG. 4B: LP-BM5+PBS=as described above; NAL 400=virus positive, plus daily (M-F) i.p. injections of nicotinylalanine (400 mg/kg) only; NAL 400 delay=nicotinylalanine (400 mg/kg) only, injected i.p. daily (M-F) beginning two weeks after virus inoculation.
Ecotropic virus titers were determined using the XC plaque assay (Yetter R. A. et al., J. Exp. Med., 168, 623-635, 1988) and were performed on spleen cells cultured from all serially killed mice at the interim sacrifices as shown in Tables 2-A & 2-B). Spleens were weighed and cells were extruded with sterile media (RPMI 1640, with gentamycin and 10% fetal calf serum). Serial 10-fold dilutions were made and one ml of each dilution was overlayered onto a monolayer of SC-1 cells treated with 4 μg/ml polybrene. After 24 hours, the media was removed and washed and the SC-1 cells were fed with fresh media. When the monolayer was confluent, the plates were irradiated with UV light at 60 ergs/mm^2 /sec and overlayered with XC cells. When the XC cell layer was confluent, the plates were fixed with methanol and stained with Giemsa Stain. Plaques were counted on an Artek colony counter and confirmed by phase contrast microscopy. Values presented in FIG. 4A represent the mean of adjusted samples at three dilutions expressed as plaques per million spleen cells. Mean and standard deviations corresponding to each of the data points in FIGS. 4A and 4B are derived from three mice serially killed at interim sacrifice times.

[4] = 1 month postinoculation, treatment from day 1: NAL 400 mg/kg i.p., ASA 20 mg/kg i.p., AZT 1 mg/ml in drink water
[5] = 2 months postinoculation, treatment from day 1: NAL 400 mg/kg i.p., ASA 20 mg/kg i.p., AZT 1 mg/ml in drink water
[6] = 3 months postinoculation, treatment from day 1: NAL 400 mg/kg i.p., ASA 20 mg/kg i.p., AZT 1 mg/ml in drink water
[7] = 4 months postinoculation, treatment from day 1: NAL 400 mg/kg i.p., ASA 20 mg/kg i.p., AZT 1 mg/ml in drink water
[8] = 1 month postinoculation, NAL 200 mg/kg i.p. (no ASA)
[9] = 1 month postinoculation, NAL 400 mg/kg i.p., delayed Rx 2 weeks
[10] = 2 months postinoculation, NAL 200 mg/kg i.p. (no ASA)
[11] = 2 months postinoculation, NAL 400 mg/kg i.p., delayed Rx 2 weeks
[12] = 3 months postinoculation, NAL 400 mg/kg i.p., delayed Rx 2 weeks
[13] = 4 months postinoculation, NAL 400 mg/kg i.p., delayed Rx 2 weeks

Cc1cn([C@H]2C[C@H](N=[N+]=[N-])[C@@H](CO)O2)c(=O)[nH]c1=O [AZT, 3'azido-3'deoxythymidine, reference compound]
Mean Hematocrit ([1]; Month 1 (10 bled)): 41.7 ± 4.0% | Mean Hematocrit ([1]; Month 2 (10 bled)): 42.7 ± 2.4% | Mean Hematocrit ([1]; Month 3 (7 bled)): 41.9 ± 1.7% | Mean Hematocrit ([1]; Month 4 (11 bled)): 42.6 ± 3.0% | Mean hematocrit over the four months sampled ([1]; NAL plus AZT (Group 5), AZT alone (Group 7)): ~42.6% | Hematopoietic toxicity ([1]; one-month interim assessment, AZT in drinking water): hematopoietic toxicity was already manifest | Body Wt. [2, 4]: 21.1 Grams and 20.9 Grams and 19.6 Grams | Spleen Wt. [2, 4]: 0.097 Grams and 0.108 Grams and 0.096 Grams | Disease Score [2, 4]: 0 and 0.5 | Body Wt. [2, 5]: 20.9 Grams and 20.0 Grams and 22.6 Grams | Spleen Wt. [2, 5]: 0.090 Grams and 0.104 Grams and 0.086 Grams | Disease Score [2, 5]: 0 | Body Wt. [2, 6]: 23.8 Grams and 23.5 Grams and 25.4 Grams | Spleen Wt. [2, 6]: 0.118 Grams and 0.114 Grams and 0.112 Grams | Disease Score [2, 6]: 0.5 | Body Wt. [2, 7]: 25.0 Grams and 21.1 Grams and 28.6 Grams | Spleen Wt. [2, 7]: 0.262 Grams and 0.086 Grams and 0.150 Grams | Disease Score [2, 7]: 2 and 0 and 1 | Virus titer, plaques per million spleen cells ([3]; ASA 20 mg/kg, AZT 1 mg/mL): 333±495 plaques per million spleen cells | Mice with detectable virus (plaques) in spleens ([3]; four months, AZT with or without 400 mg/kg NAL): two of the mice

NC(CC(=O)c1cccnc1)C(=O)O (racemic) [NAL, γ-(3-pyridyl)-γ-oxo-α-aminobutyrate]
Effect on decreased hematocrit (in words) ([1]; mouse, in vivo): protective effect | Body Wt. [2, 8]: 21.9 Grams and 21.8 Grams and 23.4 Grams | Spleen Wt. [2, 8]: 0.080 Grams and 0.257 Grams and 0.123 Grams | Body Wt. [2, 9]: 20.4 Grams and 20.5 Grams and 22.3 Grams | Spleen Wt. [2, 9]: 0.103 Grams and 0.151 Grams and 0.136 Grams | Body Wt. [2, 4]: 21.3 Grams and 20.4 Grams and 19.6 Grams | Spleen Wt. [2, 4]: 0.186 Grams and 0.309 Grams and 0.159 Grams | Disease Score [2, 8]: 0 and 1 and 0.5 | Disease Score [2, 9]: 0 and 0.5 | Disease Score [2, 4]: 1 | Body Wt. [2, 10]: 22.5 Grams and 23.8 Grams and 22.2 Grams | Spleen Wt. [2, 10]: 0.229 Grams and 0.098 Grams and 0.302 Grams | Body Wt. [2, 11]: 21.2 Grams and 20.0 Grams and 26.6 Grams | Spleen Wt. [2, 11]: 0.168 Grams and 0.086 Grams and 0.320 Grams | Body Wt. [2, 5]: 21.6 Grams and 24.0 Grams | Spleen Wt. [2, 5]: 0.289 Grams and 0.216 Grams and 0.125 Grams | Disease Score [2, 10]: 1 and 0.5 and 2 | Disease Score [2, 11]: 1 and 0 and 2 | Disease Score [2, 5]: 1 and 2 | Body Wt. [2, 12]: 23.8 Grams and 25.3 Grams and 26.3 Grams | Spleen Wt. [2, 12]: 0.090 Grams and 0.112 Grams and 0.175 Grams | Body Wt. [2, 6]: 23.6 Grams and 22.3 Grams and 24.6 Grams | Spleen Wt. [2, 6]: 0.112 Grams and 0.341 Grams and 0.086 Grams | Disease Score [2, 12]: 0 and 0.5 and 1 | Disease Score [2, 6]: 0.5 and 2 | Body Wt. [2, 13]: 26.8 Grams and 27.5 Grams and 24.5 Grams | Spleen Wt. [2, 13]: 0.399 Grams and 0.157 Grams and 0.083 Grams | Body Wt. [2, 7]: 27.6 Grams and 28.0 Grams and 25.5 Grams | Spleen Wt. [2, 7]: 0.119 Grams and 1.030 Grams and 0.240 Grams | Disease Score [2, 13]: 3 and 1 and 0.5 | Disease Score [2, 7]: 0.5 and 4 and 2 | Virus titer, plaques per million spleen cells ([3]; ASA 20 mg/kg, AZT 1 mg/mL): 3,410±4,606 plaques per million spleen cells | Virus titer, plaques per million spleen cells ([3]; delayed two weeks): 796±463 plaques per million spleen cells
